Laboratory results reported in patent US9868766B2, “Peptides as oxytocin agonists” (Hoffmann-La Roche Inc., priority 2012, dated 2018).
pEC50: −log10 of the molar value. Positions of bridges follow the written chain, without caps; N, C: chain ends. Non-standard residues stand in square brackets, D forms with d. Residues, ends and D or L forms follow the SMILES beside them. Phe(4-NH2) = Nc1ccc(C[C@H](N)C(=O)O)cc1; Cha = N[C@@H](CC1CCCCC1)C(=O)O; aThr = C[C@H](O)[C@H](N)C(=O)O; αMeL = CC(C)C[C@](C)(N)C(=O)O; Dab = NCC[C@H](N)C(=O)O; Sar = CNCC(=O)O

Legend:
Type in all cases: cell-based
[1] = molecular target: T1, human Oxytocin (OTR) receptor (Homo sapiens, UniProt P30559); assay: Calcium flux assay (FLIPR), agonist mode, CHO cells expressing human OTR; settings: for pEC50: CHO cells stably expressing human OTR, calcium flux, read-out: hOT EC50; for hOT efficacy (%) / Emax: maximum response normalized to endogenous full agonist = 100%; for Emax: CHO, read-out: hOT efficacy (%)
T1 construct: expressed in transfected cells
T1 sequence (P30559 1-389): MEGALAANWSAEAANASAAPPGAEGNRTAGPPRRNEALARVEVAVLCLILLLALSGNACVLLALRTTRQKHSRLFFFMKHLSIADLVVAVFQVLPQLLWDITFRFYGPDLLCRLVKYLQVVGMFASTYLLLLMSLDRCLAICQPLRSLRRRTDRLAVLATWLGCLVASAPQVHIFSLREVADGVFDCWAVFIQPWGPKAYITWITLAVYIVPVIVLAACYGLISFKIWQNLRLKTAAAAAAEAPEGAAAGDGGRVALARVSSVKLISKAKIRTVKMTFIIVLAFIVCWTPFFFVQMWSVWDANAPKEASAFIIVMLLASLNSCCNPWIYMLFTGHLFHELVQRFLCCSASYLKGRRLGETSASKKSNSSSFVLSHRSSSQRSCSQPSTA
Procedure, shortened: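 Monoclonal CHO cells stably expressing the receptor were loaded with 2 μM Fluo-4-AM in HBSS with 20 mM HEPES (pH 7.3) and 2.5 mM probenecid. Compound was added 10 s into reading and fluorescence followed for 5 min.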

human V1a receptor = molecular target: T2, human V1a receptor (Homo sapiens, UniProt P37288); assay: Calcium flux assay (FLIPR), agonist mode, CHO cells expressing human V1a; settings: CHO cells stably expressing human V1a; calcium flux; read-out: hV1a EC50
T2 construct: expressed in transfected cells
Source text: (§1) Chines Hamster Ovary (CHO) cells were transfected with expression plasmids encoding either the human V1a, the human Oxytocin (OTR) or the humanV2 receptor, the later in combination with the chimeric Gqs5 G protein to redirect the signal to Calcium flux. Stable cells were cloned by limiting dilution to yield monoclonal cell lines expressing either human V1a, human V2+Gqs5 or human OTR receptors and selected based on functional responses detected on a fluorometric imaging plate reader (FLIPR) detecting Calcium flux in the cell after receptor activation. The stable cell lines were grown in F-12 K Nutrient Mixture (Kaighns Modification), containing 10% foetal bovine serum (FBS), 1% penicillin-streptomycin, 1% L-glutamate, 200 ug/ml Geneticin at 37° C. in a 10% CO2 incubator at 95% humidity.
(§2) On the afternoon before the assay, cells were plated at a density of 50,000 cells/well into black 96 well plates with clear bottoms to allow cell inspection and fluorescence measurements from the bottom of each well. The density of cells was sufficient to yield a confluent monolayer the next day. Hanks balanced salt solution, without phenol red, containing 20 mM HEPES (pH 7.3) and 2.5 mM probenecid (assay buffer) was prepared fresh for each experiment. Compound dilutions were made using a Beckman Biomek 2000 laboratory automation workstation, in assay buffer containing 1% DMSO. The dye-loading buffer consisted of a final concentration of 2 μM Fluo-4-AM (dissolved in DMSO and pluronic acid) in assay buffer. The existing culture media was removed from the wells and 100 μl of the dye-loading buffer was added to each well and incubated for approximately 60 min at 37° C. in a 5% CO2 incubator at 95% humidity. Once dye-loaded, the cells were washed thoroughly on an Embla cell washer with the assay buffer to remove any unincorporated dye. Exactly 100 μl assay buffer was left in each well.
(§3) Each 96 well plate containing dye-loaded cells was placed into the FLIPR machine and the laser intensity set to a suitable level to detect low basal fluorescence. To test compounds as agonists, 25 μl diluted compound was added to the plate 10 seconds into the fluorescent measurements and fluorescent response was recorded for 5 minutes. The fluorescence data was normalized to the endogenous full agonist dose-response set at 100% for the maximum response and 0% for the minimum. Each agonist concentration-response curve was constructed using a four parameter logistic equation with Microsoft Excel XLFit as follows: Y=Minimum+((Maximum−Minimum)/(1+10^(Log EC50-X)nH)), where y is the % normalized fluorescence, minimum is the minimum y, maximum is the maximum y, log EC50 is the log10 concentration which produces 50% of the maximum induced fluorescence, x is the log10 of the concentration of the agonist compound and H is the slope of the curve (the Hill Coefficient). The maximum value gives the efficacy of the agonist test compound in percentage. The concentration of agonist that produced a half-maximal response is represented by the EC50 value, the logarithm of which yielded the pEC50 value.

human V2 receptor = molecular target: T3, human V2 receptor (Homo sapiens, UniProt P30518); assay: Calcium flux assay (FLIPR), agonist mode, CHO cells expressing human V2 + Gqs5; settings: for pEC50: CHO cells stably expressing human V2 + chimeric Gqs5, calcium flux, read-out: hV2 EC50; for Emax: CHO, read-out: hV2 efficacy (%); for Emax / hV2 efficacy (%): maximum response normalized to endogenous full agonist = 100%
T3 construct: expressed in transfected cells
Source text: as §1, §2, §3

T2 sequence (P37288 whole entry): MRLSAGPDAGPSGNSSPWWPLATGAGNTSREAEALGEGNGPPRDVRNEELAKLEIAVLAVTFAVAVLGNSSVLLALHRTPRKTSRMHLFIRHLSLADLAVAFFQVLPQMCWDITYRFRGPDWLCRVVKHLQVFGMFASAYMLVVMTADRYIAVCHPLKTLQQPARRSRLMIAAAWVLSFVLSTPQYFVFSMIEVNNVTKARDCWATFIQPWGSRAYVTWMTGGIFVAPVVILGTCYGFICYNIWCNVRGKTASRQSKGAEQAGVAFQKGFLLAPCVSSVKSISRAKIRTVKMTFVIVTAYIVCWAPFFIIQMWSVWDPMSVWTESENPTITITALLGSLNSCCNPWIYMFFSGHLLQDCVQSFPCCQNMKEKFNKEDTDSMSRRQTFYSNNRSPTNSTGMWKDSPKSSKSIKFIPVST
T3 sequence (P30518 whole entry): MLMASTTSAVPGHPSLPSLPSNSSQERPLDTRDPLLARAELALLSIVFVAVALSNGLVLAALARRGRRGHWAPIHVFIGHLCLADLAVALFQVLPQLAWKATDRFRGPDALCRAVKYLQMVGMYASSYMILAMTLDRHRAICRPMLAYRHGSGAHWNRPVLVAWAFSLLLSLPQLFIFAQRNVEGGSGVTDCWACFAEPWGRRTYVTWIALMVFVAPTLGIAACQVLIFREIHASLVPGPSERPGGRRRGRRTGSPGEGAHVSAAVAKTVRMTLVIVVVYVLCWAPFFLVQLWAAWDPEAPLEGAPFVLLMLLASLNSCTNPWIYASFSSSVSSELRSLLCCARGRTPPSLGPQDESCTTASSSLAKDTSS

Row | Compound | pEC50 [1] | hOT efficacy (%) [1] | pEC50 (human V1a receptor) | pEC50 (human V2 receptor) | Emax (human V2 receptor) | Emax [1] | hV2 efficacy (%) (human V2 receptor)
1 | CC[C@H](C)[C@@H]1NC(=O)[C@H](Cc2ccc(O)cc2)NC(=O)CNC(=O)CC[C@@H](C(=O)N(C)CC(=O)N[C@@H](Cc2ccc(N)cc2)C(=O)NCC(N)=O)NC(=O)[C@H](CC(N)=O)NC(=O)[C@H](CCC(N)=O)NC1=O [Example 1] (GYIQNE[Sar][Phe(4-NH2)]G-NH2; lactam N-6) | 8.00 | 111% | < 4.57 | 5.32 | 107% |  | 
2 | CC[C@H](C)[C@@H]1NC(=O)[C@H](Cc2ccc(N)cc2)NC(=O)CNC(=O)CC[C@@H](C(=O)N(C)CC(=O)N[C@@H](CC(C)C)C(=O)NCC(N)=O)NC(=O)[C@H](CC(N)=O)NC(=O)[C@H](CCC(N)=O)NC1=O [Example 2] (G[Phe(4-NH2)]IQNE[Sar]LG-NH2; lactam N-6) | 8.05 | 112% | < 4.57 | 5.10 | 74% |  | 
3 | CC[C@H](C)[C@@H]1NC(=O)[C@H](Cc2ccc(O)cc2)NC(=O)CNC(=O)CC[C@@H](C(=O)N(C)CC(=O)N[C@@H](CC(C)C)C(=O)NCC(N)=O)NC(=O)[C@H](CC(N)=O)NC(=O)[C@H](CCC(N)=O)NC1=O [Example 13] (GYIQNE[Sar]LG-NH2; lactam N-6) | 9.70 |  | < 4.57 | 5.29 | 97% | 111% | 
4 | CC[C@H](C)[C@@H]1NC(=O)[C@H](Cc2ccc(O)cc2)NC(=O)CNC(=O)CC[C@@H](C(=O)N2CCC[C@H]2C(=O)N[C@@H](CC(C)C)C(=O)NCC(N)=O)NC(=O)[C@H](CC(N)=O)NC(=O)[C@H](CCC(N)=O)NC1=O [Example 24] (GYIQNEPLG-NH2; lactam N-6) | 8.66 |  | < 4.57 | 5.60 | 98% | 152% | 
5 | CC[C@H](C)[C@@H]1NC(=O)[C@H](Cc2ccc(O)cc2)NC(=O)CNC(=O)CC[C@@H](C(=O)N(C)CC(=O)N[C@H](C(=O)NCC(N)=O)[C@H](C)O)NC(=O)[C@H](CC(N)=O)NC(=O)[C@H](CCC(N)=O)NC1=O [Example 25] (GYIQNE[Sar][aThr]G-NH2; lactam N-6) | 8.52 | 125% | < 5.00 | 5.42 | 103% |  | 
6 | CC[C@H](C)[C@@H]1NC(=O)[C@H](Cc2ccc(O)cc2)NC(=O)CNC(=O)CC[C@@H](C(=O)N(C)CC(=O)N[C@H](C(=O)NCC(N)=O)C(C)C)NC(=O)[C@H](CC(N)=O)NC(=O)[C@H](CCC(N)=O)NC1=O [Example 26] (GYIQNE[Sar]VG-NH2; lactam N-6) | 8.70 | 124% | < 5.00 | 5.58 | 102% |  | 
7 | CC[C@H](C)[C@@H]1NC(=O)[C@H](Cc2ccc(O)cc2)NC(=O)CNC(=O)CC[C@@H](C(=O)N(C)CC(=O)N[C@@H](Cc2ccccc2)C(=O)NCC(N)=O)NC(=O)[C@H](CC(N)=O)NC(=O)[C@H](CCC(N)=O)NC1=O [Example 27] (GYIQNE[Sar]FG-NH2; lactam N-6) | 8.30 | 128% | < 5.00 | 5.82 | 101% |  | 
8 | CC[C@H](C)[C@@H]1NC(=O)[C@H](Cc2ccc(O)cc2)NC(=O)CNC(=O)CC[C@@H](C(=O)N(C)CC(=O)N[C@@H](CO)C(=O)NCC(N)=O)NC(=O)[C@H](CC(N)=O)NC(=O)[C@H](CCC(N)=O)NC1=O [Example 28] (GYIQNE[Sar]SG-NH2; lactam N-6) | 8.30 | 122% | < 5.00 | 5.38 | 87% |  | 
9 | CC[C@H](C)[C@@H]1NC(=O)[C@H](Cc2ccc(O)cc2)NC(=O)CNC(=O)CC[C@@H](C(=O)N(C)CC(=O)N[C@@H](CCC(=O)O)C(=O)NCC(N)=O)NC(=O)[C@H](CC(N)=O)NC(=O)[C@H](CCC(N)=O)NC1=O [Example 29] (GYIQNE[Sar]EG-NH2; lactam N-6) | 7.49 | 130% | < 5.00 | 4.97 | 39% |  | 
10 | CC[C@H](C)[C@@H]1NC(=O)[C@H](Cc2ccc(O)cc2)NC(=O)CNC(=O)CC[C@@H](C(=O)N(C)CC(=O)N[C@@H](CCN)C(=O)NCC(N)=O)NC(=O)[C@H](CC(N)=O)NC(=O)[C@H](CCC(N)=O)NC1=O [Example 30] (GYIQNE[Sar][Dab]G-NH2; lactam N-6) | 8.22 |  | < 5.00 | 6.85 |  | 119% | 104%
11 | CC[C@H](C)[C@@H]1NC(=O)[C@H](Cc2ccc(O)cc2)NC(=O)CNC(=O)CC[C@@H](C(=O)N(C)CC(=O)N[C@@H](CCC(N)=O)C(=O)NCC(N)=O)NC(=O)[C@H](CC(N)=O)NC(=O)[C@H](CCC(N)=O)NC1=O [Example 31] (GYIQNE[Sar]QG-NH2; lactam N-6) | 8.05 |  | < 5.00 | 5.57 | 91% | 131% | 
12 | CC[C@H](C)[C@@H]1NC(=O)[C@H](Cc2ccc(O)cc2)NC(=O)CNC(=O)CC[C@@H](C(=O)N(C)CC(=O)N[C@@H](Cc2ccc(O)cc2)C(=O)NCC(N)=O)NC(=O)[C@H](CC(N)=O)NC(=O)[C@H](CCC(N)=O)NC1=O [Example 32] (GYIQNE[Sar]YG-NH2; lactam N-6) | 8.40 |  | < 5.00 | 5.70 | 106% | 119% | 
13 | CC[C@H](C)[C@H](NC(=O)CN(C)C(=O)[C@@H]1CCC(=O)NCC(=O)N[C@@H](Cc2ccc(O)cc2)C(=O)N[C@@H]([C@@H](C)CC)C(=O)N[C@@H](CCC(N)=O)C(=O)N[C@@H](CC(N)=O)C(=O)N1)C(=O)NCC(N)=O [Example 33] (GYIQNE[Sar]IG-NH2; lactam N-6) | 8.70 |  | < 4.57 | 5.42 | 101% | 119% | 
14 | CC[C@H](C)[C@@H]1NC(=O)[C@H](Cc2ccc(O)cc2)NC(=O)CNC(=O)CC[C@@H](C(=O)N(C)CC(=O)N[C@@H](Cc2c[nH]cn2)C(=O)NCC(N)=O)NC(=O)[C@H](CC(N)=O)NC(=O)[C@H](CCC(N)=O)NC1=O [Example 34] (GYIQNE[Sar]HG-NH2; lactam N-6) | 8.00 | 136% | < 5.00 | 6.84 |  |  | 120%
15 | CC[C@H](C)[C@@H]1NC(=O)[C@H](Cc2ccc(O)cc2)NC(=O)CNC(=O)CC[C@@H](C(=O)N(C)CC(=O)N[C@@H](CC2CCCCC2)C(=O)NCC(N)=O)NC(=O)[C@H](CC(N)=O)NC(=O)[C@H](CCC(N)=O)NC1=O [Example 39] (GYIQNE[Sar][Cha]G-NH2; lactam N-6) | 9.40 |  | < 4.57 | 5.43 | 111% | 122% | 
16 | CC[C@H](C)[C@@H]1NC(=O)[C@H](Cc2ccc(O)cc2)NC(=O)CNC(=O)CC[C@@H](C(=O)N(C)CC(=O)N[C@@](C)(CC(C)C)C(=O)NCC(N)=O)NC(=O)[C@H](CC(N)=O)NC(=O)[C@H](CCC(N)=O)NC1=O [Example 51] (GYIQNE[Sar][αMeL]G-NH2; lactam N-6) | 7.89 | 97% | < 4.57 |  |  |  | 
